Columns and labels:
[1] = tested on: gluthathione-S-transferase (GST, EC 2.5.1.18); test: Spectrophotometric determination of EC 2.5.1.18 (GST) induction in PC-12 cells; type: cell-based; conditions: Rat PC-12 cells, 24 hours incubation; negative logarithm of molar concentration causing 50% induction of enzyme activity; CDNB and GSH substrates
Description: Spectrophotometric Determination of EC 2.5.1.18 (GST) Induction
Rat PC-12 cells are incubated for 24 hours with a test compound. GST activity is measured using 1-chloro-2,4-dinitrobenzene (CDNB) and gluthathine (GSH) as substrates. The enzyme catalyses the reaction converting these substrates into S-(2,4-dinitrophenyl)glutathione, which product is measured spectrophotometrically at 340 nm. The effect of the test compound is expressed as pEC50: the negative logarithm of the molar concentration of the compound which causes 50% induction of the enzyme activity. Also the maximal percentage enzyme induction is determined. (see Drukarch et al. “Anethole dithiolethione prevents oxidative damage in gluthathione-depleted astrocytes”, Eur. J. Pharmacol. 329, 259-262, 1997).

[2] = tested on: NAD(P)H: oxidoreductase (NQO, EC 1.6.99.2); test: Spectrophotometric determination of EC 1.6.99.2 (NQO) induction in PC-12 cells; type: cell-based; conditions: Rat PC-12 cells, 24 hours incubation; negative logarithm of molar concentration causing same half maximal induction as reference compound D3T; menadione/MTT
Description: Spectrophotometric Determination of EC 1.6.99.2 (NQO) Induction
Rat PC-12 cells are incubated for 24 hours with a test compound. NAD(P)H: oxidoreductase (NQO, EC 1.6.99.2) activity is measured using menadione as substrate and MTT as readout compound. The formation of formazan from MTT is measured spectrophotometrically at 540 nm. The percentage stimulation (PS) relative to the maximal effect of the reference compound D3T is calculated. The maximal percentage stimulation with the concentration which induced the maximal percentage as condition and the pEA50 value (the negative logarithm of the molar concentration of the compound which caused the same half maximal induction of the enzyme activity as the reference compound D3T) are recorded (see Murphy et al., “Enhanced NAD(P)H:Quinone reductase activity defenses in neuronal cells prevents free radical-mediated damage”, J. Neurochem., 71 69-77, 1998 and Prochaska et al., Analytical Biochemistiy, 169, 328-336 1988).

CCCCc1ccc(N=c2nc(N(C)C)ss2)cc1 [Compound A2]
GST pEC50 [1]: 5.2 | NQO pEA50 [2]: 5.2 | melting point: 81 to 82.5 °C

CN(C)c1nc(=Nc2ccc([N+](=O)[O-])cc2)ss1 [Compound A10]
GST pEC50 [1]: 5.4 | NQO pEA50 [2]: 5.8 | melting point: 170 to 171.5 °C

Cc1cccc(N=c2nc(N3CCOCC3)ss2)c1 [Compound B5]
GST pEC50 [1]: 5.3 | NQO pEA50 [2]: 5.7 | melting point: 217 to 226 °C

CN=c1ssc(=Nc2ccccc2)n1C [Compound C2]
GST pEC50 [1]: 5.8 | NQO pEA50 [2]: 6.2 | melting point: 80 to 82 °C

CN=c1ssc(=Nc2ccccc2C)n1C [Compound C3]
GST pEC50 [1]: 5.8 | NQO pEA50 [2]: 5.7 | melting point: 100 to 101.4 °C

CN=c1ssc(=Nc2cccc(F)c2)n1C [Compound C11]
GST pEC50 [1]: 5.6 | NQO pEA50 [2]: 5.3 | melting point: 76.5 to 77.6 °C
